As a reminder, the IC50 is the point on the concentration scale where inhibition reaches its midpoint.

Assay [1] has as its target T1, human α1G T-type channels (Homo sapiens, UniProt O43497).
T1 construct: expressed in transfected cells; host or cells: HEK 293
The experiment in a line: T-type calcium channel block, whole cell patch clamp in HEK cells (α1G). It is filed as cell-based. To be noted: HEK cells, patch clamp, mainly non-inactivated protocol; values above 10 μM shown as 10 μM, below 0.30 μM shown as 0.30 μM; read-out: T-type Calcium Channel Block α1G IC50. For orientation: In patch-clamp work, channel activity is measured electrically.

Assay [2] has as its target T2, human α1H T-type channels (Homo sapiens, UniProt O95180).
T2 construct: expressed in transfected cells; host or cells: HEK 293
The assay can be described thus: T-type calcium channel block, whole cell patch clamp in HEK cells (α1H). As to conditions: HEK cells, patch clamp, mainly non-inactivated protocol; values above 10 μM shown as 10 μM; read-out: T-type Calcium Channel Block α1H IC50. The class given is cell-based.

T2 sequence (O95180 whole entry): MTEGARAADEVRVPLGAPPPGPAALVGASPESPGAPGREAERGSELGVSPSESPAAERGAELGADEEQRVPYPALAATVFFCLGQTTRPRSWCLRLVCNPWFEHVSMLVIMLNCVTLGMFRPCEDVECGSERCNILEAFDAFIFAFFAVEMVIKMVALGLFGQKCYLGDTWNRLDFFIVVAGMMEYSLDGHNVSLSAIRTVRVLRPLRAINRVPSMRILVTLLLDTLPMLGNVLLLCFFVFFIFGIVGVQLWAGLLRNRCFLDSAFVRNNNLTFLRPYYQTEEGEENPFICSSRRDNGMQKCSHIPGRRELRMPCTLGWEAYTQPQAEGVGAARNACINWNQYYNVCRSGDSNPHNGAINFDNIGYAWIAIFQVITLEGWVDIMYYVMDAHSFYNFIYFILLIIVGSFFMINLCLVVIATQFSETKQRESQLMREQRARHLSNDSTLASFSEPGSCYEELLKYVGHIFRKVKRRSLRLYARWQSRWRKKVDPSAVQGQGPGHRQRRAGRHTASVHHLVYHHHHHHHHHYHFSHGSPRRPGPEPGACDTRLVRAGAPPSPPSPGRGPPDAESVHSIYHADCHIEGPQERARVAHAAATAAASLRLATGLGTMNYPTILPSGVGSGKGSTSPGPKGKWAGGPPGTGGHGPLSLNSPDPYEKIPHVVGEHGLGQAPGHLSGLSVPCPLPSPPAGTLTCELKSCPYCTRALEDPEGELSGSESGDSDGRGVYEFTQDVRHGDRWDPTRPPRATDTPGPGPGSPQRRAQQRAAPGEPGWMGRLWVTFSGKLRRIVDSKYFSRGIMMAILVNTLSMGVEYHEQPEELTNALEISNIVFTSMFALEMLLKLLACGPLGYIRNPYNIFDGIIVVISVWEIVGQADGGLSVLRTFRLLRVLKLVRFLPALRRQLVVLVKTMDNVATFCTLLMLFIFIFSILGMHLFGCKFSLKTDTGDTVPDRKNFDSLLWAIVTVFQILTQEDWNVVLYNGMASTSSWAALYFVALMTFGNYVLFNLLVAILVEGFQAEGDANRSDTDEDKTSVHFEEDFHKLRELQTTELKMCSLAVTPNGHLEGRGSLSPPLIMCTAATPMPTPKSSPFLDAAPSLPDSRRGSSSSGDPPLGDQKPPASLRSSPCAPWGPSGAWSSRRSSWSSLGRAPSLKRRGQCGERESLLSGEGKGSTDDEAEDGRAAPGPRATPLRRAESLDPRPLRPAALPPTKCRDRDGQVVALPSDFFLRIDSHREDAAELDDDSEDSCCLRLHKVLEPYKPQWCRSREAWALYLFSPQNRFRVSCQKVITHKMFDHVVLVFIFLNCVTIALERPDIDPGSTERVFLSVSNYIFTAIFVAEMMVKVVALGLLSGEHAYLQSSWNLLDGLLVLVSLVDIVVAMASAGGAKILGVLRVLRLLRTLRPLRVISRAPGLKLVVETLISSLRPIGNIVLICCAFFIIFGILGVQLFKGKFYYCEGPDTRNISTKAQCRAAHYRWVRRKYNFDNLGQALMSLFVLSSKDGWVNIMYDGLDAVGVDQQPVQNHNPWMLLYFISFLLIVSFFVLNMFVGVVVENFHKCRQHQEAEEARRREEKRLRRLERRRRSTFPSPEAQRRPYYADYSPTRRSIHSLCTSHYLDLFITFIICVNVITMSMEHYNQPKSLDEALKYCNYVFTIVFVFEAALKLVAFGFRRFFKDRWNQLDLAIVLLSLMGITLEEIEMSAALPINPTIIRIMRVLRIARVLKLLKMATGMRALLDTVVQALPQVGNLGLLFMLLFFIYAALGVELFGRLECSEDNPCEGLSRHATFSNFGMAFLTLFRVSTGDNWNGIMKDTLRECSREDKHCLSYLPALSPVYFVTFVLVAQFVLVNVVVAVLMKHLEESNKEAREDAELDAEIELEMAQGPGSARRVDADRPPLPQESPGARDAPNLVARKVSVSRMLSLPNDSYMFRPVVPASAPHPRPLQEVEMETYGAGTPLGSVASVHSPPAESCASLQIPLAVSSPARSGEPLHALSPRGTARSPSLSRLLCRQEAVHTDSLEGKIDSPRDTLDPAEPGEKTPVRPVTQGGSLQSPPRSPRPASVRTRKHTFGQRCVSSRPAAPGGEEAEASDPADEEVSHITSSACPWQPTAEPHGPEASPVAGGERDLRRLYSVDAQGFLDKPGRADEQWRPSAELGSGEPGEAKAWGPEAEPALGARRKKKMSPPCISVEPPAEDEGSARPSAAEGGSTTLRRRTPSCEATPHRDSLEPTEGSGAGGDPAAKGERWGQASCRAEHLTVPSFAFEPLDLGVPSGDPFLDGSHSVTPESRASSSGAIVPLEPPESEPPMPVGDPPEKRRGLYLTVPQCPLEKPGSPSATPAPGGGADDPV
T1 sequence (O43497 whole entry): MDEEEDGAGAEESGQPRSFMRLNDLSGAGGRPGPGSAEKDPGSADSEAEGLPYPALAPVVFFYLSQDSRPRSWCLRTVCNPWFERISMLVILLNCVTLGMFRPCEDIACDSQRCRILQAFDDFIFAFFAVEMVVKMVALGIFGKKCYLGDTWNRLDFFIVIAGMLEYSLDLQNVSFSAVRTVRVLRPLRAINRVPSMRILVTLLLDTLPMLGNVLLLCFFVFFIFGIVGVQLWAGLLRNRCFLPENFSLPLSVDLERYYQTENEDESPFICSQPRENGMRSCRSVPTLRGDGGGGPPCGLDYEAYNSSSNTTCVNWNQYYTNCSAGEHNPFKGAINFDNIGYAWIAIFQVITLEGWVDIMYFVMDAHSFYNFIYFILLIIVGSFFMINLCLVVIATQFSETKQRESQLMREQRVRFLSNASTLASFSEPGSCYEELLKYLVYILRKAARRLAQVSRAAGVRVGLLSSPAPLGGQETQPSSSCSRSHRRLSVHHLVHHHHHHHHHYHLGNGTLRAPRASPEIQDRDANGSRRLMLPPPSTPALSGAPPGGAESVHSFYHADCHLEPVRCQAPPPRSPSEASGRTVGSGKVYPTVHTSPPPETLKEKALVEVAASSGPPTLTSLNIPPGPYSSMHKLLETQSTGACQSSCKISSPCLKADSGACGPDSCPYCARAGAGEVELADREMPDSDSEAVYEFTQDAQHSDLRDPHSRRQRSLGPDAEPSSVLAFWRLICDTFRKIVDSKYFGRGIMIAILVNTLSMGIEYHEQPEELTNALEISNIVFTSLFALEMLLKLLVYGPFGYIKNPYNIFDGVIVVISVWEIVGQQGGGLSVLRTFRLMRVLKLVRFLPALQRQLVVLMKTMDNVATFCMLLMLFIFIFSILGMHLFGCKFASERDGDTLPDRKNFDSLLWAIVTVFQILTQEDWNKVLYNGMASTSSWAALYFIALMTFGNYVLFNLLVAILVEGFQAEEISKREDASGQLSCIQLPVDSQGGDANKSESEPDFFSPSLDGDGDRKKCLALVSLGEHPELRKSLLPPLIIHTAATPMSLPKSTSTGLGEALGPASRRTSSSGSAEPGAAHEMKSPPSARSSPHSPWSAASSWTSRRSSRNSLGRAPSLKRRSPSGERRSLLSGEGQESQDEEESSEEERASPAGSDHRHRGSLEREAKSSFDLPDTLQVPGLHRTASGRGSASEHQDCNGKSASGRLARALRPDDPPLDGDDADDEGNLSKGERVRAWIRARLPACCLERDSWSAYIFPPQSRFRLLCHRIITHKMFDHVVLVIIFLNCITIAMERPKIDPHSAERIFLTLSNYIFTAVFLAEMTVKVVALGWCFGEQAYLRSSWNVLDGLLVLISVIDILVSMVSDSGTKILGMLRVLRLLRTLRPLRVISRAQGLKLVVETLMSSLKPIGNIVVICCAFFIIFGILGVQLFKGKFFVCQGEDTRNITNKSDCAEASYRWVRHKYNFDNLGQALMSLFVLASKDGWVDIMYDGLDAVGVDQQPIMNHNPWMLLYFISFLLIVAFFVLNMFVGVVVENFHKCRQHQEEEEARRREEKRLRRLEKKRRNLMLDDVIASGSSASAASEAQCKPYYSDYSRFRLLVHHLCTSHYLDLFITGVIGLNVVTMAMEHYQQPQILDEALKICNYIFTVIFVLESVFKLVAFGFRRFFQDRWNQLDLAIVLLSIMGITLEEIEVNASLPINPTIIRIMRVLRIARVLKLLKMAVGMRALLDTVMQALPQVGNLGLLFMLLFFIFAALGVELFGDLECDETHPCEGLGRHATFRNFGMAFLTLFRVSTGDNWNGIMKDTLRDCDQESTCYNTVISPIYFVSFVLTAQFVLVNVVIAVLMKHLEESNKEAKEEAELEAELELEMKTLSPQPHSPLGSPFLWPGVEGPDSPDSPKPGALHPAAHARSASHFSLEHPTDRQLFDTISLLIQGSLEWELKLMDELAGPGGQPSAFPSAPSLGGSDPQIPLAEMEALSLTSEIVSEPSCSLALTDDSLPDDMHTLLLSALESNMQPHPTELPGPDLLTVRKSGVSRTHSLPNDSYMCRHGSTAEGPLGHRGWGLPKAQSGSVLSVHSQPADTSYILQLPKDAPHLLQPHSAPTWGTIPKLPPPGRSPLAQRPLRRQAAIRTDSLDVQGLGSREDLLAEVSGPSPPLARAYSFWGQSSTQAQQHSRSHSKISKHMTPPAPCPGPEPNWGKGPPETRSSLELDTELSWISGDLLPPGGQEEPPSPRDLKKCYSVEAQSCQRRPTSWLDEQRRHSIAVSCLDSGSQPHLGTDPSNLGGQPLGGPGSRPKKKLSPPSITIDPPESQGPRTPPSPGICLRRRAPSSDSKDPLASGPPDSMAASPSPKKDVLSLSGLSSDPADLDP

As to `CC(C)(C)NC(=O)CN1CCC(CNC(=O)Cc2cc(C(F)(F)F)cc(C(F)(F)F)c2)CC1` [Compound 383, 2-(3,5-bis(trifluoromethyl)phenyl)-N-((1-(2-(tert-butylamino)-2-oxoethyl)piperidin-4-yl)methyl)acetamide], the results for the IC50 in assay [1] and in assay [2] were 1220 nM and 1350 nM, respectively.

Turning to `CCCNC(=O)CN1CCC(CNC(=O)c2cccc(Br)c2)CC1` [Compound 450, 3-bromo-N-((1-(2-oxo-2-(propylamino)ethyl)piperidin-4-yl)methyl)benzamide], the IC50 in assay [1] is 8880 nM; in assay [2], more than 10000 nM.

Consider `CN(CC(=O)N1CCC(CNC(=O)c2cc(C(F)(F)F)cc(C(F)(F)F)c2)CC1)C1CCCCC1` [Compound 246, N-((1-(2-(cyclohexyl(methyl)amino)acetyl)piperidin-4-yl)methyl)-3,5-bis(trifluoromethyl)benzamide], for which the results for the IC50 in assay [1] and in assay [2] were 1310 nM and 1130 nM, respectively.

`Cc1cc(C)cc(C(=O)NCC2CCN(CCNC(=O)C3(C(F)(F)F)CC3)CC2)c1` [Compound 497, 3,5-dimethyl-N-((1-(2-(1-(trifluoromethyl)cyclopropanecarbox-amido)ethyl)piperidin-4-yl)methyl) benzamide]: the IC50 was 770 nM in assay [1] and 160 nM in assay [2].

As to `CC(C)(C)NC(=O)CN1CCC(CNC(=O)/C=C/c2cc(Cl)cc(Cl)c2)CC1` [Compound 378, (E)-N-((1-(2-(tert-butylamino)-2-oxoethyl)piperidin-4-yl)methyl)-3-(3,5-dichlorophenyl)acrylamide], the IC50 in assay [1] was determined as 1600 nM; in assay [2], 1440 nM.

With `CCC1CCCCN1CC(=O)N1CCC(CNC(=O)c2cc(F)cc(C(F)(F)F)c2)CC1` (stereo not drawn) [Compound 269, N-((1-(2-(2-ethylpiperidin-1-yl)acetyl)piperidin-4-yl)methyl)-3-fluoro-5-(trifluoromethyl)benzamide], the IC50 in assay [1] turned out to be 1400 nM; in assay [2], 3140 nM.

On to `CC(C)(C#N)NC(=O)CN1CCC(CNC(=O)c2cc(C(F)(F)F)cc(C(F)(F)F)c2)CC1` [Compound 304, N-((1-(2-(2-cyanopropan-2-ylamino)-2-oxoethyl)piperidin-4-yl)methyl)-3,5-bis(trifluoromethyl)benzamide], for which the IC50 in assay [1] was less than 300 nM; in assay [2], 370 nM.

Regarding `O=C(NCC1CCN(CCNC(=O)C2(C(F)(F)F)CC2)CC1)c1cccc(Cl)c1` [Compound 502, 3-chloro-N-((1-(2-(1-(trifluoromethyl)cyclopropanecarbox-amido)ethyl)piperidin-4-yl)methyl) benzamide], the half-inhibitory concentration (IC50) is 590 nM in assay [1] and 230 nM in assay [2].

On to `CC(C)COC(=O)NC(CN1CCC(CC(=O)NCc2cc(Cl)cc(Cl)c2)CC1)C(C)(C)C` (stereo not drawn) [Compound 225, isobutyl 1-(4-(2-(3,5-dichlorobenzyl-amino)-2-oxoethyl)piperidin-1-yl)-3,3-dimethylbutan-2-ylcarbamate], for which the IC50 stood at 520 nM in assay [1] and 770 nM in assay [2].

Consider `CCOC(=O)NCCN1CCC(CNC(=O)c2cc(C(F)(F)F)cc(C(F)(F)F)c2)CC1` [Compound 36, ethyl 2-(4-((3,5-bis(trifluoromethyl)benzamido)methyl)piperidin-1-yl)ethylcarbamate], for which the results for the IC50 in assay [1] and in assay [2] were 4300 nM and 1700 nM, respectively.

Consider `Cc1cc(F)cc(C(=O)NCC2CCN(CC(=O)NC(C)(C)C(F)(F)F)CC2)c1` [Compound 455, 3-fluoro-5-methyl-N-((1-(2-oxo-2-(1,1,1-trifluoro-2-methylpropan-2-ylamino)ethyl)piperidin-4-yl)methyl)benzamide], for which the IC50 in assay [1] was less than 300 nM; in assay [2], 30 nM.

Take `O=C(CN1CCC(CNC(=O)c2cc(F)cc(Cl)c2)CC1)NC1(C2CCOCC2)CC1` [Compound 563, 3-chloro-5-fluoro-N-((1-(2-oxo-2-(1-(tetrahydro-2H-pyran-4-yl)cyclopropylamino)ethyl)piperidin-4-yl)methyl)benzamide]: the IC50 in assay [1] was less than 300 nM; in assay [2], 310 nM.

For the molecule `CC(C)(C)C(=O)NCCN1CCC(CNC(=O)c2cccc(C(F)(F)F)c2)CC1` [Compound 296, N-((1-(2-pivalamidoethyl)piperidin-4-yl)methyl)-3-(trifluoromethyl)benzamide], the IC50 in assay [1] stood at 610 nM; in assay [2], 1100 nM.

Regarding `Cc1cc(F)cc(C(=O)NCC2CCN(CC(=O)N3CCC[C@H]3C(F)(F)F)CC2)c1` [Compound 464, (S)-3-fluoro-5-methyl-N-((1-(2-oxo-2-(2-(trifluoromethyl)pyrrolidin-1-yl)ethyl)piperidin-4-yl)methyl)benzamide], the figures for the IC50 in assay [1] and in assay [2] were less than 300 nM and 140 nM, respectively.

With `CC(C)(C)C(=O)NCCN1CCC(CNC(=O)c2cccc(OC(F)(F)F)c2)CC1` [Compound 292, N-((1-(2-pivalamidoethyl)piperidin-4-yl)methyl)-3-(trifluoromethoxy)benzamide], the IC50 in assay [1] was determined as 360 nM; in assay [2], 740 nM.

As to `COCC(C)(C)NC(=O)C(C)N1CCC(CNC(=O)c2cc(F)cc(Cl)c2)CC1` (stereo not drawn) [Compound 551, 3-chloro-5-fluoro-N-((1-(1-(1-methoxy-2-methylpropan-2-ylamino)-1-oxopropan-2-yl)piperidin-4-yl)methyl)benzamide], the half-inhibitory concentration (IC50) is 370 nM in assay [1] and 140 nM in assay [2].

Take `CC(C)NC(=O)CN1CCC(CNC(=O)c2cccc(OC(F)(F)F)c2)CC1` [Compound 444, N-((1-(2-(isopropylamino)-2-oxoethyl)piperidin-4-yl)methyl)-3-(trifluoromethoxy)benzamide]: the IC50 in assay [1] is 7400 nM; in assay [2], more than 10000 nM.

With `CCCNC(=O)CN1CCC(CNC(=O)c2cccc(Cl)c2)CC1` [Compound 451, 3-chloro-N-((1-(2-oxo-2-(propylamino)ethyl)piperidin-4-yl)methyl)benzamide], the IC50 in assay [1] and in assay [2] was more than 10000 nM in each case.

`COc1cc(C(=O)NCC2CCN(CCNC(=O)C(C)(C)C)CC2)cc(C(F)(F)F)c1` [Compound 303, 3-methoxy-N-((1-(2-pivalamidoethyl)piperidin-4-yl)methyl)-5-(trifluoromethyl)benzamide]: the IC50 in assay [1] was less than 300 nM; in assay [2], 600 nM.

Turning to `CC(C)S(=O)(=O)NCCN1CCC(CNC(=O)c2cc(C(F)(F)F)cc(C(F)(F)F)c2)CC1` [Compound 20, N-((1-(2-(1-methylethylsulfonamido)ethyl)piperidin-4-yl)methyl)-3,5-bis(trifluoromethyl)benzamide], the IC50 in assay [1] was less than 300 nM; in assay [2], 400 nM.

In the case of `O=C(NCC1CCN(CCNS(=O)(=O)C(F)(F)F)CC1)c1cc(C(F)(F)F)cc(C(F)(F)F)c1` [Compound 21, 3,5-bis(trifluoromethyl)-N-((1-(2-(trifluoromethylsulfonamido)ethyl)piperidin-4-yl)methyl)benzamide], the IC50 in assay [1] is 3660 nM; in assay [2], 590 nM.

`CC(C)(C)C(=O)NCCN1CCC(CNC(=O)c2cc(Cl)cc(C(F)(F)F)c2)CC1` [Compound 301, 3-chloro-N-((1-(2-pivalamidoethyl)piperidin-4-yl)methyl)-5-(trifluoromethyl)benzamide]: the IC50 is less than 300 nM in assay [1] and 450 nM in assay [2].

Regarding `O=C(CN1CCC(CNC(=O)c2cc(F)cc(C(F)(F)F)c2)CC1)NC1(C2CCOCC2)CC1` [Compound 561, 3-fluoro-N-((1-(2-oxo-2-(1-(tetrahydro-2H-pyran-4-yl)cyclopropylamino)ethyl)piperidin-4-yl)methyl)-5-(trifluoromethyl) benzamide], the concentration for half-maximal inhibition (IC50) is less than 300 nM in assay [1] and 270 nM in assay [2].

Turning to `COc1cc(C(=O)NCC2CCN(CCNS(=O)(=O)C(F)(F)F)CC2)cc(C(F)(F)F)c1` [Compound 327, 3-methoxy-5-(trifluoromethyl)-N-((1-(2-(trifluoromethylsulfonamido)ethyl)piperidin-4-yl)methyl)benzamide], the IC50 in assay [1] was less than 300 nM; in assay [2], 740 nM.

Turning to `COc1cc(F)cc(C(=O)NCC2CCN(CC(=O)N3CCC[C@H]3C(F)(F)F)CC2)c1` [Compound 465, (S)-3-fluoro-5-methoxy-N-((1-(2-oxo-2-(2-(trifluoromethyl)pyrrolidin-1-yl)ethyl)piperidin-4-yl)methyl)benzamide], the IC50 was less than 300 nM in assay [1] and 170 nM in assay [2].

In the case of `CN(CCN1CCC(CNC(=O)c2cc(F)cc(C(F)(F)F)c2)CC1)C(=O)NC1CCCCC1` [Compound 525, N-((1-(2-(3-cyclohexyl-1-methylureido)ethyl)piperidin-4-yl)methyl)-3-fluoro-5-(trifluoromethyl) benzamide], the IC50 worked out at 2360 nM in assay [1] and 770 nM in assay [2].

On to `CCS(=O)(=O)NC1(CN2CCC(CNC(=O)c3cc(C(F)(F)F)cc(C(F)(F)F)c3)CC2)CC1` [Compound 358, N-((1-((1-(ethylsulfonamido)cyclopropyl)methyl)piperidin-4-yl)methyl)-3,5-bis(trifluoromethyl)benzamide], for which the IC50 is 520 nM in assay [1] and 530 nM in assay [2].

Regarding `Cc1cc(C)cc(C(=O)NCC2CCN(CCNC(=O)CCC(F)(F)F)CC2)c1` [Compound 312, 3,5-dimethyl-N-((1-(2-(4,4,4-trifluorobutanamido)ethyl)piperidin-4-yl)methyl)benzamide], the IC50 came out at 4260 nM in assay [1] and 750 nM in assay [2].

Turning to `O=C(NCC1CCN(C(=O)CNC2CCCCC2)CC1)c1cc(C(F)(F)F)cc(C(F)(F)F)c1` [Compound 249, N-((1-(2-(cyclohexylamino)acetyl)piperidin-4-yl)methyl)-3,5-bis(trifluoromethyl)benzamide], the IC50 in assay [1] was less than 300 nM; in assay [2] it was 580 nM.

With `O=C(NCC1CCN(CCNS(=O)(=O)C2CC2)CC1)c1ccc(C(F)(F)F)c(F)c1` [Compound 387, N-((1-(2-(cyclopropanesulfonamido)ethyl)piperidin-4-yl)methyl)-3-fluoro-4-(trifluoromethyl)benzamide], the figures for the IC50 in assay [1] and in assay [2] were 990 nM and 720 nM, respectively.

For the origin of these results see patent publication US8569344B2, “N-piperidinyl acetamide derivatives as calcium channel blockers” (Zalicus Pharmaceuticals Ltd., priority 2008, dated 2013).
